Test system: edema induced by carrageenan
Test: experimental inflammation model with carrageenan at the rats' posterior paws
Type: in vivo, Wistar rats
Conditions: rat, administered independently
Experimental: The anti-inflammatory effect was found via the experimental inflammation model with carrageenan at the rats' posterior paws. For the experimental research, we used Wistar rats with 120±10g weight, in groups of 9 animals.
1% carrageenan saline solution was administered by subcutaneous injection (0.1 mL volume) In the posterior paw.
The anti-inflammatory combination was administered 1 hour before carrageenan. The posterior paws' dimensions were measured before and 3 hours after carrageenan solution injection. The contra lateral paw was used as reference. The following combination was used for the experiments:
This (combination, formulated as) suspension was administered orally (gavage), in dosage of 0.2 mL/100 g rat body weight.
Acetylsalicylic acid was administered independently, in doses of 250 mg/kg body weight, equivalent to the quantity used in the combination. Chlorpheniramine was also (independently) administered by oral route, as reference, in doses equivalent to 6 mg/kg body weight.

## CN(C)CCC(c1ccc(Cl)cc1)c1ccccn1 (centres unmarked) [chlorpheniramine]
Oral route, 6 mg/kg body weight
  anti-inflammatory effect: no anti-inflammatory effect

## CC(=O)Oc1ccccc1C(=O)O [acetylsalicylic acid]
250 mg/kg body weight
  anti-inflammatory effect (reduces pow edema), mean value: approximately 22%

Reference: patent EP1945226B1, “DRUG COMBINATION WITH ANALGESIC, ANTI-INFLAMMATORY AND DECONGESTIVE ACTIVITY” (Voicu, A. Victor, priority 2005, dated 2006)
